Some test systems named below: SF-268 CNS; MCF7 breast; NCI-H460 lung; UACC-257 melanoma; A498 renal; SNB-19 CNS; A549 NSCLC; SF-295 CNS; OVCAR-3 ovarian; HOP-92 NSCLC.
Holding throughout (test): growth of human tumour cells (NCI), 48 h

“And” between values parts separate entries of the source, which are not always exact repeats. Equal values may be shown once.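 Interpolation was linear, between the two tested concentrations surrounding the appropriate level; five concentrations were tested over 48 hours in 96-well plates. Abbreviation: GI50, concentration required for 50% inhibition of growth. The concentration for full growth arrest is given as TGI.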

As to `Cc1c(N)nc(C2CC(=O)N2CC(N)C(N)=O)nc1C(=O)NC(C(=O)NC(C)C(O)C(C)C(=O)NC(C(=O)NCCc1nc(-c2nc(C(=O)NCCNCC(C)O)cs2)cs1)C(C)O)C(OC1OC(CO)C(O)C(O)C1OC1OC(CO)C(O)C(OC(N)=O)C1O)c1cnc[nH]1` (configuration not stated), the GI50 was 1690 nM in the assay on SF-268 CNS; 208 nM in the assay on NCI-H460 lung; 6200 nM with UACC-257 melanoma; 13600 nM in the assay on SNB-19 CNS; 4680 nM in the assay with A549 NSCLC; 460 nM in the assay with SF-295 CNS. Besides, in the assay on OVCAR-3 ovarian, the GI50 was 1630 nM. For the same compound, the TGI was 32600 nM and > 23200 nM in the assay with SF-268 CNS; 50000 nM in the assay on MCF7 breast; 50000 nM and 13600 nM with NCI-H460 lung; 49400 nM in the assay on UACC-257 melanoma; over 46600 nM in the assay on A498 renal; 50000 nM and > 100000 nM in the assay with SNB-19 CNS. In addition, the TGI with A549 NSCLC is 50000 nM and > 100000 nM; with SF-295 CNS, 12100 nM and 15700 nM; with OVCAR-3 ovarian it was 20600 nM and > 55000 nM; in the assay on HOP-92 NSCLC, 9680 nM.

As to `COc1ccc(Cl)cc1Nc1nc(C(F)(F)F)ccc1C(=O)N/N=C/c1ccc(Cl)cc1`, the GI50 in the assay with SF-268 CNS was 1960 nM; in the assay on MCF7 breast, 1050 nM; with NCI-H460 lung, 1820 nM; in the assay on UACC-257 melanoma, 7910 nM; in the assay on A498 renal, 18200 nM; in the assay with SNB-19 CNS it was 6420 nM. In addition, the GI50 is 37700 nM with A549 NSCLC, 2090 nM in the assay on SF-295 CNS, 576 nM in the assay on OVCAR-3 ovarian and 11400 nM with HOP-92 NSCLC. In addition, the TGI in the assay with SF-268 CNS was 27900 nM; in the assay on MCF7 breast, over 100000 nM; with NCI-H460 lung, over 100000 nM; in the assay with UACC-257 melanoma, over 100000 nM; with A498 renal, over 100000 nM; in the assay with SNB-19 CNS, over 100000 nM. Also, the TGI is over 100000 nM in the assay on A549 NSCLC, 12100 nM in the assay on SF-295 CNS, 1660 nM in the assay with OVCAR-3 ovarian and 67200 nM in the assay on HOP-92 NSCLC.

For the compound `O=C1OC(c2ccccc2)=N/C1=C\c1ccc(N(CCCl)CCCl)cc1`, the TGI in the assay with SF-268 CNS, in the assay with MCF7 breast, in the assay with NCI-H460 lung, in the assay on UACC-257 melanoma, with A498 renal and in the assay on SNB-19 CNS was over 100000 nM throughout. Besides, the TGI was over 100000 nM in the assay on A549 NSCLC, over 100000 nM in the assay with SF-295 CNS, over 100000 nM in the assay on OVCAR-3 ovarian and over 84600 nM in the assay on HOP-92 NSCLC.

With `Cn1c(=O)c(-c2c(Cl)cccc2Cl)cc2cnc(Nc3ccc(N4CCOCC4)cc3)nc21`, the GI50 was 391 nM in the assay with SF-268 CNS; 1490 nM in the assay with MCF7 breast; 570 nM with NCI-H460 lung; under 43.3 nM in the assay with A498 renal; 561 nM with SNB-19 CNS; 666 nM with A549 NSCLC. Moreover, the GI50 with SF-295 CNS is 200 nM; with OVCAR-3 ovarian it was 323 nM; in the assay on HOP-92 NSCLC, 211 nM. Further, the TGI in the assay with SF-268 CNS was over 27900 nM; in the assay on MCF7 breast, over 100000 nM; in the assay on UACC-257 melanoma, over 22400 nM; in the assay on A498 renal it was 140 nM; in the assay on SNB-19 CNS it was over 22600 nM; in the assay with SF-295 CNS it was over 100000 nM. The TGI is over 100000 nM with OVCAR-3 ovarian and 1930 nM in the assay with HOP-92 NSCLC.

Turning to `O=C1COc2c(CCNCCN(C(=O)CCNCCc3ccc(Cl)c(Cl)c3)C3CCCCC3)ccc(O)c2N1`, the GI50 in the assay with SF-268 CNS was 14700 nM; in the assay with MCF7 breast it was 11900 nM; in the assay on NCI-H460 lung it was 16500 nM; in the assay on UACC-257 melanoma it was 16900 nM; in the assay with A498 renal, 13900 nM; with SNB-19 CNS, 15000 nM. Further, the GI50 in the assay with A549 NSCLC is 21800 nM; in the assay on SF-295 CNS, 15700 nM; in the assay with OVCAR-3 ovarian, 16800 nM; with HOP-92 NSCLC, under 35.3 nM. Besides, the TGI was found to be 30300 nM in the assay on SF-268 CNS; 27800 nM in the assay with MCF7 breast; 31100 nM in the assay on NCI-H460 lung; 33000 nM with UACC-257 melanoma; 28400 nM in the assay on A498 renal; 31000 nM in the assay on SNB-19 CNS. For the same compound, the TGI was determined as 44800 nM in the assay on A549 NSCLC, 30800 nM in the assay with SF-295 CNS, 32100 nM with OVCAR-3 ovarian and 17500 nM in the assay with HOP-92 NSCLC.

Turning to `COc1ccc(C[C@H](N)C(=O)N[C@@H]2[C@@H](CO)OC(n3cnc4c(N(C)C)ncnc43)[C@@H]2O)cc1` (some centres not stated), the TGI in the assay on SF-268 CNS stood at 1180 nM; with MCF7 breast it was 621 nM; in the assay with NCI-H460 lung, 889 nM; in the assay with UACC-257 melanoma, 1080 nM; with A498 renal, 1090 nM; with SNB-19 CNS it was 1710 nM. For the same compound, the TGI is 2210 nM in the assay with SF-295 CNS, 535 nM in the assay on OVCAR-3 ovarian and 510 nM in the assay on HOP-92 NSCLC. Further, the GI50 in the assay on MCF7 breast was 152 nM; with UACC-257 melanoma it was 321 nM; in the assay with A498 renal it was 189 nM; with SNB-19 CNS it was 339 nM; in the assay with SF-295 CNS, 655 nM; with HOP-92 NSCLC, 120 nM.

Regarding `COc1cc(-c2nn(-c3cccc(NC(=O)c4cccc(C(F)(F)F)c4)c3)cc2-c2ccncc2)ccc1Cl`, the GI50 in the assay on SF-268 CNS is 2130 nM; in the assay on MCF7 breast, 1430 nM; with NCI-H460 lung, 1450 nM; in the assay with UACC-257 melanoma it was 27900 nM; in the assay on A498 renal, 687 nM; in the assay on SNB-19 CNS, 2460 nM. Moreover, the GI50 in the assay on A549 NSCLC was 1870 nM; with SF-295 CNS, 1020 nM; in the assay with OVCAR-3 ovarian, 1200 nM; in the assay on HOP-92 NSCLC it was 554 nM. Further, the TGI in the assay on SF-268 CNS is over 50000 nM; with MCF7 breast, over 50000 nM; in the assay with NCI-H460 lung, 9270 nM; in the assay with UACC-257 melanoma it was over 50000 nM; in the assay on A498 renal, 2780 nM; in the assay on SNB-19 CNS it was over 50000 nM. For the same compound, the TGI with A549 NSCLC was over 50000 nM; in the assay on SF-295 CNS, 3000 nM; with OVCAR-3 ovarian, 2980 nM; in the assay with HOP-92 NSCLC, 3120 nM.

In the case of `Oc1ccc(/C=N/Nc2nnc(N/N=C/c3ccc(O)cc3O)c3ccccc23)c(O)c1`, the GI50 in the assay on SF-268 CNS was 353 nM; with MCF7 breast, 576 nM; in the assay with NCI-H460 lung, 414 nM; in the assay with UACC-257 melanoma it was 1840 nM; in the assay on A498 renal, 1330 nM; with A549 NSCLC it was 670 nM. Further, the figures for the GI50 with SF-295 CNS, in the assay on OVCAR-3 ovarian and in the assay with HOP-92 NSCLC were 173 nM, 385 nM and 496 nM, respectively. Also, the TGI is 848 nM and 2290 nM in the assay on MCF7 breast; 1760 nM in the assay on NCI-H460 lung; 7730 nM in the assay on UACC-257 melanoma; 3510 nM in the assay with A498 renal; 7190 nM with SNB-19 CNS; over 28700 nM in the assay with A549 NSCLC. The TGI in the assay with SF-295 CNS was 813 nM and 597 nM; with OVCAR-3 ovarian, 489 nM and 1900 nM; in the assay with HOP-92 NSCLC, 2650 nM.

The values are drawn from PubChem BioAssay (NCI).
